For one test, the target named is T1, hT1R2/hT1R3 sweet receptor expressed in HEK293 cell line (Homo sapiens, UniProt Q7RTX0+Q8TE23).
T1 construct: expressed in transfected cells; host or cells: HEK293 derivative stably expressing Gα15 and hT1R2/hT1R3, clone S-9
T1 sequence (Q8TE23 20-839): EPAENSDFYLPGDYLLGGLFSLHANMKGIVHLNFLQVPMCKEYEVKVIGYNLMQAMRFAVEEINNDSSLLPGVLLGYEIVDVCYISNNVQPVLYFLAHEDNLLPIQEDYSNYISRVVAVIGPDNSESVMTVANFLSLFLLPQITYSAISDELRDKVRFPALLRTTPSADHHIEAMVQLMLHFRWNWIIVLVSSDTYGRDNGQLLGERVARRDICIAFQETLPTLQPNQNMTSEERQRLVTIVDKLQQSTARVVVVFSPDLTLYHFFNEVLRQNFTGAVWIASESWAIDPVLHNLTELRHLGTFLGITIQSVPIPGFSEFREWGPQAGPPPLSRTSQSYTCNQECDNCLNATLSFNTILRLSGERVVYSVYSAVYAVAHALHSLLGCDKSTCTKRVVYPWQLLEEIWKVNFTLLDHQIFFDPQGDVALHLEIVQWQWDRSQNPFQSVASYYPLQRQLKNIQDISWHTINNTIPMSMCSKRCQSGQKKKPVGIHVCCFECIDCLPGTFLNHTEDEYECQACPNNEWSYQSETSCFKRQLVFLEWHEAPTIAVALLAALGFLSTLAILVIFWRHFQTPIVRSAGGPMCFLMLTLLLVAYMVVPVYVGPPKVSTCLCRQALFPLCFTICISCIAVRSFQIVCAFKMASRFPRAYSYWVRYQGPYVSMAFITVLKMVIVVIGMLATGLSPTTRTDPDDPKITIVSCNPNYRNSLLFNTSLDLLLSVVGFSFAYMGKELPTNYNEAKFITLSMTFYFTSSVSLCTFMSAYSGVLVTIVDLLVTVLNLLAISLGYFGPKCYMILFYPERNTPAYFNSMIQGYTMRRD
T1 sequence (Q7RTX0 21-852): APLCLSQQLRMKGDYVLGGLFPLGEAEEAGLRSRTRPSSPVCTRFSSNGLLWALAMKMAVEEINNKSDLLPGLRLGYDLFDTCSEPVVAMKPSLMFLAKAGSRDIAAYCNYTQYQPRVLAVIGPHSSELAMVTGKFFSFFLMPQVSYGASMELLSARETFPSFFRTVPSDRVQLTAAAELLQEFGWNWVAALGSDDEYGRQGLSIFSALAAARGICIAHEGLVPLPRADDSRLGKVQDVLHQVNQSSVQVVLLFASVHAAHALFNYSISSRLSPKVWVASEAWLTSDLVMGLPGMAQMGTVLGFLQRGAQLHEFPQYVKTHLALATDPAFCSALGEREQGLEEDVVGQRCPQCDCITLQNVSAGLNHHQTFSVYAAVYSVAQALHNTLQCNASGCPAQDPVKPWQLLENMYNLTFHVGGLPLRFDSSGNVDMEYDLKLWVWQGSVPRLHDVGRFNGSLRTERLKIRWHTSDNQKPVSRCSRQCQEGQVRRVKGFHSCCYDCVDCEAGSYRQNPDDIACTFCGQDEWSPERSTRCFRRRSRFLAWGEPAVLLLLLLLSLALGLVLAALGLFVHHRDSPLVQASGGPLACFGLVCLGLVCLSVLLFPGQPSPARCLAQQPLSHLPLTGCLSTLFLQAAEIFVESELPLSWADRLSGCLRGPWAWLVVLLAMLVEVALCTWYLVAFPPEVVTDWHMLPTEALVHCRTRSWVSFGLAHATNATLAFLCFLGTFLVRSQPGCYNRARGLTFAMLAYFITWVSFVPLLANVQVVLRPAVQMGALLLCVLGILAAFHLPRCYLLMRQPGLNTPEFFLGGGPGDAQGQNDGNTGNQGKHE
As to the kind of experiment: In vitro hT1R2/hT1R3-HEK293 taste receptor activation assay (FLIPR). The following applies: Table A; read-out: SWEET EC50. In kind it is cell-based. The protocol:
An HEK293 cell line derivative (Chandrashekar et al., Cell (2000) 100:703-711) that stably expresses Gα15 and hT1R2/hT1R3 (Li et al., Proc Natl Acad Sci USA (2002) 99:4692-4696), see also PCT Publication No. WO 03/001876 A2) was used to identify compounds with sweet taste enhancing properties.
Compounds covered in this document were initially selected based on their activity on the hT1R2/hT1R3-HEK293-Gα15 cell line (Li et al. vide supra). Activity was determined using an automated fluorometric imaging assay on a FLIPR instrument ([…], Molecular Devices, Sunnyvale, Calif.) (designated FLIPR assay). Cells from one clone (designated S-9 cells) were seeded into 384-well plates (at approximately 50,000 cells per well) in a medium containing DMEM Low Glucose (Invitrogen, Carlsbad, Calif.), 10% dialyzed fetal bovine serum (Invitrogen, Carlsbad, Calif.), 100 Units/ml Penicillin G, and 100 μg/ml Streptomycin (Invitrogen, Carlsbad, Calif.) (Li et al. vide supra) see also PCT Publication No. WO 03/001876 A2). S-9 cells were grown for 24 hours at 37° C. S-9 cells were then loaded with the calcium dye Fluo-3AM (Molecular Probes, Eugene, Oreg.), 4 μM in a phosphate buffered saline (D-PBS) (Invitrogen, Carlsbad, Calif.), for 1 hour at room temperature. After replacement with 25 μl D-PBS, stimulation was performed in the FLIPR instrument and at room temperature by the addition of 25 μl D-PBS supplemented with different stimuli at concentrations corresponding to twice the desired final level. Receptor activity was quantified by determining the maximal fluorescence increases (using a 480 nm excitation and 535 nm emission) after normalization to basal fluorescence intensity measured before stimulation.
For dose-responses analysis, stimuli were presented in duplicates at 10 different concentrations ranging from 60 nM to 30 μM. Activities were normalized to the response obtained with 400 mM D-fructose, a concentration that elicits maximum receptor response. EC50s were determined using a non-linear regression algorithm (using a Senomyx, Inc. software), where the Hill slope, bottom asymptotes and top asymptotes were allow to vary. Identical results were obtained when analyzing the dose-response data using commercially available software for non-linear regression analysis such as GraphPad PRISM (San Diego, Calif.).
With `CCCNC(=O)C(C)(C)c1ccc(-c2cncc(C#N)n2)cc1` [Compound A52], the EC50 worked out at 470 nM.
Turning to `CC(C)CNC(=O)C(C)(C)c1ccc(-c2cccc(C#N)n2)cc1` [Compound A81], the EC50 stood at 670 nM.
Same read-out and setting: as for `CCCNC(=O)C(C)(C)c1ccc(-c2cccc(COC)c2)cc1` [Compound A78], the figure is 670 nM; as for `CC(C)CNC(=O)C(C)(C)c1ccc(-c2ccccc2)c(O)c1` [Compound A67], 1420 nM; as for `CC(C)(C(=O)NC1CCCC1)c1ccc(-c2cncc(C#N)n2)cc1` [Compound A43], 130 nM.
`CC(NC(=O)C(C)(C)c1ccc(-c2cncc(C#N)c2)cc1)c1ccccc1` (centres unmarked) [Compound A20]: the EC50 amounted to 710 nM.
Turning to `CC(C)CNC(=O)C(C)(C)c1ccc(-c2cnco2)cc1` [Compound A35], the EC50 is 11500 nM.
On to `COc1cccc(-c2ccc(C(C)(C)C(=O)NCC(C)C)cc2)c1OC` [Compound A18], for which the EC50 is 6600 nM.
Consider `CC(C)CNC(=O)C(C)(C)c1ccc(-c2cccc(C#N)c2CO)cc1` [Compound A80], for which the EC50 came to 670 nM.
Consider `CC(C)(C(=O)NCC(O)c1ccco1)c1ccc(-c2cncc(C#N)n2)cc1` (centres unmarked) [Compound A65], for which the EC50 was found to be 1310 nM.
Take `CC(C)CNC(=O)C(C)(C)c1ccc(-c2coc(C(=O)O)c2)cc1` [Compound A66]: the EC50 was found to be 1370 nM.
Same read-out and setting: as for `CC(C)CNC(=O)C(C)(C)c1ccc(-c2ccc(C#N)o2)cc1` [Compound A63], the figure is 1290 nM.
For the compound `CC(C)CNC(=O)C(C)(C)c1ccc(-c2cnc3ccccn23)cc1` [Compound A25], the EC50 worked out at 1230 nM.
As to `CC(C)CNC(=O)C(C)(C)c1ccc(-n2ccnc2)cc1` [Compound A34], the EC50 is 10100 nM.
For `CC(C)CNC(=O)C(C)(C)c1ccc(-c2ccccc2)c(F)c1` [Compound A3], the EC50 was 1710 nM.
On to `CCC(C)CNC(=O)C(C)(C)c1ccc(-c2cncc(C#N)c2)cc1` (centres unmarked) [Compound A83], for which the EC50 is 110 nM.
For `CC(C)CNC(=O)C(C)(C)c1ccc(-c2ccc3[nH]ccc3c2)cc1` [Compound A10], the EC50 came out at 3360 nM.
Take `CCC[C@@H](CO)NC(=O)C(C)(C)c1ccc(-c2cncc(C#N)c2)cc1` [Compound A69]: the EC50 was found to be 1660 nM.
On to `COc1ccc([C@@H](C)NC(=O)C(C)(C)c2ccc(-c3cncnc3)cc2)cc1` [Compound A88], for which the EC50 came to 370 nM.

The test is the same for the next values; noted with them: read-out: EC50 for activation of a hT1R2/hT1R3 sweet receptor expressed in HEK293 cell line.
As for `CC(C)(C(=O)NCc1ccco1)c1ccc(-c2cncc(C#N)n2)cc1` [Compound 49, 2-(4-(6-cyanopyrazin-2-yl)phenyl)-N-(furan-2-ylmethyl)-2-methylpropanamide], the EC50 was found to be 470 nM.
For the compound `CC(C)CNC(=O)C(C)(C)c1ccc(-c2cccc(OC(C)C)c2)cc1` [Compound 18, N-isobutyl-2-(3′-isopropoxybiphenyl-4-yl)-2-methylpropanamide], the EC50 is 4200 nM.
For `CC(C)CNC(=O)C(C)(C)c1ccc(-c2cccc(C(=O)N(C)C)c2)cc1` [Compound 17, 2-(3′-((dimethylamino)carbonyl)biphenyl-4-yl)-N-isobutyl-2-methylpropanamide], the EC50 was found to be 2700 nM.
For the compound `CC(C)CNC(=O)C(C)c1ccc(-c2ccccc2)c(F)c1` (centres unmarked) [Compound 3, 2-(2-fluorobiphenyl-4-yl)-N-isobutylpropanamide], the EC50 came out at 2800 nM.
Consider `COC(C)CNC(=O)C(C)(C)c1ccc(-c2cncc(C#N)n2)cc1` (centres unmarked) [Compound 45, 2-(4-(6-cyanopyrazin-2-yl)phenyl)-N-(2-methoxypropyl)-2-methylpropanamide], for which the EC50 is 920 nM.
For the compound `CCC(CC)NC(=O)C(C)(C)c1ccc(-c2cncc(C#N)c2)cc1` [Compound 21, 2-(4-(5-cyanopyridin-3-yl)phenyl)-2-methyl-N-(pentan-3-yl)propanamide], the EC50 is 70 nM.
In the case of `CC(C)CNC(=O)C(C)(C)c1ccc(-c2cncc(C#N)c2)cn1` [Compound 42, 2-(5′-cyano-3,3′-bipyridin-6-yl)-N-isobutyl-2-methylpropanamide], the EC50 came out at 10600 nM.
On the same count and under the same terms, for `CC(C)CNC(=O)C(C)(C)c1ccc(-c2cccc(O)c2)cc1` [Compound 11, 2-(3′-hydroxybiphenyl-4-yl)-N-isobutyl-2-methylpropanamide] the value was 1900 nM; for `CC(C(=O)NCc1ccco1)c1ccc(-c2ccccc2)c(F)c1` (centres unmarked) [Compound 4, 2-(2-fluorobiphenyl-4-yl)-N-(furan-2-ylmethyl)propanamide], 4550 nM; for `CC(C)CNC(=O)C(C)(C)c1ccc(-n2cccc2)cc1` [Compound 28, 2-(4-(1H-pyrrol-1-yl)phenyl)-N-isobutyl-2-methylpropanamide], 350 nM.
In the case of `CC(C)CNC(=O)C(C)(C)c1ccc(-c2ccsc2)cc1` [Compound 7, N-isobutyl-2-methyl-2-(4-(thiophen-3-yl)phenyl)propanamide], the EC50 worked out at 1240 nM.
Regarding `CC(C)CNC(=O)C(C)(C)c1cnn(-c2ccccc2)c1` [Compound 31, N-isobutyl-2-methyl-2-(1-phenyl-1H-pyrazol-4-yl)propanamide], the EC50 amounted to 14900 nM.
Consider `CC(C)(C(=O)NCC(O)c1ccco1)c1ccc(-c2cncc(C#N)c2)cc1` (centres unmarked) [Compound 46, 2-(4-(5-cyanopyridin-3-yl)phenyl)-N-(2-(furan-2-yl)-2-hydroxyethyl)-2-methylpropanamide], for which the EC50 turned out to be 1190 nM.
With `CCC(COC)NC(=O)C(C)(C)c1ccc(-c2ccccc2)c(F)c1` (centres unmarked) [Compound 6, 2-(2-fluorobiphenyl-4-yl)-N-(1-methoxybutan-2-yl)-2-methylpropanamide], the EC50 came out at 3810 nM.
Regarding `CC[C@@H](C)NC(=O)C(C)(C)c1ccc(-c2cncc(C#N)n2)cc1` [Compound 47, (R)-N-sec-butyl-2-(4-(6-cyanopyrazin-2-yl)phenyl)-2-methylpropanamide], the EC50 is 140 nM.
Still for that read-out and setting: as for `CC(C)CNC(=O)C(C)(C)c1nc(-c2ccccc2)no1` [Compound 41, N-isobutyl-2-methyl-2-(3-phenyl-1,2,4-oxadiazol-5-yl)propanamide], the figure is 6530 nM.

The values are drawn from patent US7842324B2 (Senomyx, Inc., priority 2005, dated 2010).
